Laboratory results reported in article PMC5447021, “TNF Lectin-Like Domain Restores Epithelial Sodium Channel Function in Frameshift Mutants Associated with Pseudohypoaldosteronism Type 1B” (Frontiers in Immunology, 2017).
“Also recorded” adds a separate entry of the source.

Key:
αR448fsβγ-ENaC = target: T1, αR448fsβγ-ENaC (Homo sapiens, UniProt P37088+P51168+P51170); assay: Whole-cell patch clamp, αR448fs + WT βγ; assay type: cell-based; conditions: αR448fsβγ preincubated with 100 units PNGase F; 200 nM solnatide or 20 nM TNF; n = 3
T1 construct: expressed in transfected cells; host or cells: HEK-293
Experimental: Currents were recorded with the patch clamp method in the whole-cell mode. […] Chemicals for pipette and bathing solutions were supplied by Sigma-Aldrich (Vienna, Austria). Electrophysiological measurements were carried out with an Axopatch 200B patch clamp amplifier (Axon Instruments, CA, USA).

αT169fs = assay: Membrane abundance of αT169fs; assay type: cell-based, human; conditions: 200 nM, relative to WT control (=1)
Experimental: Cell surface biotinylation was performed as previously described ([26]). In brief, A549 cells or transiently transfected HEK-293 cells were grown in 10 cm dishes in 37°C, 5% CO2 incubator in DMEM medium supplemented with 5% FBS. […] Medium was aspirated, and then cells were washed twice with 10 ml ice-cold phosphate-buffered saline (PBS), covered with 2.5 mg EZ-Link Sulfo-NHS-SS-Biotin (Thermo Scientific, Rockford, USA), dissolved in 10 ml ice-cold PBS, and incubated at 4°C with gentle agitation for 30 min. Fifty milliliters of quenching solution were added to cells; then cells were scraped in solution and transferred to fresh 50 ml tube. Cell suspension was centrifuged at 500 × g for 3 min. Supernatant was discarded, and 5 ml of Tris-buffered saline (TBS) was added to the cell pellet. The cell pellet was resuspended and centrifuged at 500 × g for 3 min. Supernatant was discarded and cell pellet was resuspended in lysis buffer containing protease inhibitor cocktail (10 µM pepstatin A, 10 µM phenylmethylsulfonyl fluoride, and 10 µM leupeptin) and transferred to fresh 1.5 ml centrifuge tube. Cell pellet was then homogenized on ice by ultrasonication using 1 s bursts and incubated on ice for at least 30 min. Intact cells and nuclei were pelleted by centrifugation at 10,000 × g for 2 min under cooling conditions. […] Exposed films were scanned and quantified using ImageJ (NIH, MD, USA). […]

T1 sequence (P37088 with tags, fused parts or gaps): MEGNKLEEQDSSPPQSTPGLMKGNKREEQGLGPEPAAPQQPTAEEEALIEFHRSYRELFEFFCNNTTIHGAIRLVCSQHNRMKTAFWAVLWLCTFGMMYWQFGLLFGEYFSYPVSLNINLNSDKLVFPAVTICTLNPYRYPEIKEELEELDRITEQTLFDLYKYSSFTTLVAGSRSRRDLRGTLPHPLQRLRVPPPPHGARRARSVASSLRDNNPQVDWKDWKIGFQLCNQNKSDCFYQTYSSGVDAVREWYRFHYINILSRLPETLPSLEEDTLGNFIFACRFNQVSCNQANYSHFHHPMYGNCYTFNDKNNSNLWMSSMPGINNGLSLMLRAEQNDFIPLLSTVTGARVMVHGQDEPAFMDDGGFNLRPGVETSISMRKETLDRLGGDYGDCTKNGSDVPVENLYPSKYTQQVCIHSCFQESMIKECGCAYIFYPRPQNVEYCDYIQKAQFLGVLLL
T1 sequence (P51168 whole entry partner): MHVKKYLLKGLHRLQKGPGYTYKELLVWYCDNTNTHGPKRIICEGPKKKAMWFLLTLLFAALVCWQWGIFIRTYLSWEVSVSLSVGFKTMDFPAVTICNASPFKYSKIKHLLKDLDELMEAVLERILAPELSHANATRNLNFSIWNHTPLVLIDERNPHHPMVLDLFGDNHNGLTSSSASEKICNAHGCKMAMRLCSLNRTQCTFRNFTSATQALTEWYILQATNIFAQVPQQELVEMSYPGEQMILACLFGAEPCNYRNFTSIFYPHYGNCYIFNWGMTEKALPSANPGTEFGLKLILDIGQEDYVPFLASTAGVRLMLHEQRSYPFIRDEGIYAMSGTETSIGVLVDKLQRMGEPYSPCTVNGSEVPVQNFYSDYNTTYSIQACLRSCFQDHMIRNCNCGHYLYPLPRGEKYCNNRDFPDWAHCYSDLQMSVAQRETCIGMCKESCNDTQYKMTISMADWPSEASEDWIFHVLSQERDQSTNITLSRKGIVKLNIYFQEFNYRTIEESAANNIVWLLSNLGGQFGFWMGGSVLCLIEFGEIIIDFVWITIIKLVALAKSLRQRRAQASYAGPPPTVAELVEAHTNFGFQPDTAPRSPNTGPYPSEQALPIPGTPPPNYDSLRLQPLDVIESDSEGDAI
T1 sequence (P51170 whole entry partner): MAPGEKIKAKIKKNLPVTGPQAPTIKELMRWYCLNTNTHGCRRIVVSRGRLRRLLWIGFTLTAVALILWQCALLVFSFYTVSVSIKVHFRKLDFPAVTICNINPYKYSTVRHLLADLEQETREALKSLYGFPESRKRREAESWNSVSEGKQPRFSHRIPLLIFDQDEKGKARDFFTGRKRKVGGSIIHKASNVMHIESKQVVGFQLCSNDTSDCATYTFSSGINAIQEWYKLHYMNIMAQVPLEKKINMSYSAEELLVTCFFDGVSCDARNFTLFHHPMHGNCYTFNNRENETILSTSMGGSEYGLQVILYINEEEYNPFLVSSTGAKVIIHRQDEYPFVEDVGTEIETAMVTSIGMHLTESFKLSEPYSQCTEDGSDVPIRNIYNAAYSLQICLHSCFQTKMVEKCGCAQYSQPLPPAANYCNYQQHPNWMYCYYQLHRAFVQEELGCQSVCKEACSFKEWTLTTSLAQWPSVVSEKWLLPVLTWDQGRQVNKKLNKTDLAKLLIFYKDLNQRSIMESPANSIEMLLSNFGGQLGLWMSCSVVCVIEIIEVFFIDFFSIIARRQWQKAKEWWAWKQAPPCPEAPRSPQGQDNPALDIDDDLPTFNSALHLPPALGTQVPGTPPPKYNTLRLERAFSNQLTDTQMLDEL

C[C@@H]1NC(=O)CNC(=O)[C@H](CCC(=O)O)NC(=O)[C@@H]2CCCN2C(=O)[C@H]([C@@H](C)O)NC(=O)[C@H](CCC(=O)O)NC(=O)[C@H](CCCNC(=N)N)NC(=O)[C@H](CCC(N)=O)NC(=O)CNC(=O)[C@@H](N)CSSC[C@@H](C(=O)O)NC(=O)[C@H](Cc2ccc(O)cc2)NC(=O)[C@H](Cc2c[nH]c3ccccc23)NC(=O)[C@@H]2CCCN2C(=O)[C@H](CCCCN)NC(=O)[C@H](C)NC(=O)[C@H](CCC(=O)O)NC1=O [solnatide, L-cysteine, L-cysteinylglycyl-L-glutaminyl-L-arginyl-L-α-glutamyl-L-threonyl-L-prolyl-L-α-glutamylglycyl-L-alanyl-L-α-glutamyl-L-alanyl-L-lysyl-L-prolyl-L-tryptophyl-L-tyrosyl-, cyclic (1→17)-disulfide]
Current activation after PNGase F (αR448fsβγ-ENaC): no current could be induced; also recorded: neither TNF nor solnatide potentiated amiloride-sensitive current in αR448fsβγ-ENaC following PNGase F treatment
Membrane abundance, solnatide 5 min (αT169fs; 5 min, own control 0.54 ± 0.06, p < 0.001 vs control): 0.80 ± 0.03
Membrane abundance, solnatide 10 min (αT169fs; 10 min, own control 0.54 ± 0.06): 0.46 ± 0.09
